The record followed here is US9504747B2, “Lipids and lipid compositions for the delivery of active agents” (Novartis AG, priority 2013, dated 2016).

What is called pKa is the pH at which an ionisable group is half protonated. A higher pKa goes with a group that holds its proton tightly.

A short description of series [1]: Polydispersity index (PDI) of the lipid nanoparticle (dynamic light scattering). It counts as physicochemical. The note with it: Table 4, FVII siRNA LNP. The source says: The lipid nanoparticles (LNPs) were formed by mixing equal volumes of lipids dissolved in alcohol with siRNA dissolved in a citrate buffer by an impinging jet process. […] The siRNA to total lipid ratio is approximately 0.05 (wt/wt). Where a LNP formulation contains four lipid components, the molar ratios correspond to the type of lipid as it appears in the first four columns of the table, in the order that they appear. The ratio of the lipids ranges from 20 to 70 mole percent for the cationic lipid with a target of 40-60, the mole percent of helper lipid ranges from 20 to 70 with a target of 30 to 50, the mole percent of neutral lipid ranges from 0-30, the mole percent of PEG lipid has a range from 1 to 6 with a target of 2 to 5. The concentration of siRNA solution ranges from 0.7 to 1.0 mg/mL with a target of 0.8 to 0.9 mg/mL in a sodium citrate: sodium chloride buffer pH 4-6, with a target of 4.5-5.5. The LNPs are formed by mixing equal volumes of lipid solution in ethanol with siRNA dissolved in a citrate buffer by an impinging jet process through a mixing device with ID ranging from 0.25 to 2.0 mm at a flow rate from 10 to 640 mL/min. The mixed LNP solution is held at room temperature for 0-24 hrs prior to a dilution step. […] The final product is sterile filtered and stored at 4° C. Unless indicated otherwise, all PDIs referred to herein are the PDI of the fully formed nanoparticle, as measured by dynamic light scattering on a Malvern Zetasizer. The nanoparticle sample was diluted in phosphate buffered saline (PBS) so that the count rate was approximately 200-400 kcts. The data is presented in Tables 4 and 5 as a weighted average of the intensity measure.

Series [2] can be described thus: Particle size of the lipid nanoparticle (dynamic light scattering, Malvern Zetasizer). In kind it is physicochemical. The note with it: Table 4, FVII siRNA LNP, Z-average. The source says:
The lipid nanoparticles have a size of about 1 to about 2,500 nm, about 1 to about 1,500 nm, about 1 to about 1,000 nm, in a sub-embodiment about 50 to about 600 nm, in a sub-embodiment about 50 to about 400 nm, in a sub-embodiment about 50 to about 250 nm, and in a sub-embodiment about 50 to about 150 nm. Unless indicated otherwise, all sizes referred to herein are the average sizes (diameters) of the fully formed nanoparticle, as measured by dynamic light scattering on a Malvern Zetasizer. The nanoparticle sample is diluted in phosphate buffered saline (PBS) so that the count rate is approximately 200-400 kcts. The data is presented as a weighted average of the intensity measure. The lipid nanoparticles (LNPs) were formed by mixing equal volumes of lipids dissolved in alcohol with siRNA dissolved in a citrate buffer by an impinging jet process. […] The siRNA to total lipid ratio is approximately 0.05 (wt/wt). Where a LNP formulation contains four lipid components, the molar ratios correspond to the type of lipid as it appears in the first four columns of the table, in the order that they appear. The ratio of the lipids ranges from 20 to 70 mole percent for the cationic lipid with a target of 40-60, the mole percent of helper lipid ranges from 20 to 70 with a target of 30 to 50, the mole percent of neutral lipid ranges from 0-30, the mole percent of PEG lipid has a range from 1 to 6 with a target of 2 to 5. The concentration of siRNA solution ranges from 0.7 to 1.0 mg/mL with a target of 0.8 to 0.9 mg/mL in a sodium citrate: sodium chloride buffer pH 4-6, with a target of 4.5-5.5. The LNPs are formed by mixing equal volumes of lipid solution in ethanol with siRNA dissolved in a citrate buffer by an impinging jet process through a mixing device with ID ranging from 0.25 to 2.0 mm at a flow rate from 10 to 640 mL/min. The mixed LNP solution is held at room temperature for 0-24 hrs prior to a dilution step. […] The final product is sterile filtered and stored at 4° C. Unless indicated otherwise, all particle size measurements referred to in Tables 4 and 5 are the Z-average particle size of the fully formed nanoparticle, as measured by dynamic light scattering on a Malvern Zetasizer. The nanoparticle sample was diluted in phosphate buffered saline (PBS) so that the count rate is approximately 200-400 kcts.

Series [3] can be described thus: pKa measurement of the cationic lipid (TNS fluorescence vs pH). In kind it is physicochemical. Particulars: probe TNS (fluorescent probe), Table 4; pKa of the cationic lipid of formula (I). The protocol: Unless indicated otherwise, all pKa's referred to herein were measured at standard temperature and pressure. Also, unless otherwise indicated, all references to pKa are references to pKa measured using the following technique. 2 mM solution of lipid in ethanol was prepared by weighing the lipid and then dissolving it in ethanol. 0.3 mM solution of fluorescent probe TNS in ethanol:methanol 9:1 was prepared by first making 3 mM solution of TNS in methanol and then diluting to 0.3 mM with ethanol. An aqueous buffer containing 200 mM sodium phosphate dibasic and 100 mM citric acid was prepared. […] Using the Hamilton Microlab Star high throughput liquid handler and Hamilton run control software Software, 7.5 uL of probe/lipid mix were added to 242.5 uL of buffer in a 1 mL 96 well plate (model NUNC 260252, […] Nunc International). This was done with all twelve buffers. After mixing in 1 mL 96 well plate, 100 uL of each probe/lipid/buffer mixture was transferred to a 250 uL black with clear bottom 96 well plate (model COSTAR 3904, Corning). The fluorescence measurements are carried out on the SpectraMax M5 spectrophotometer using software SoftMax pro 5.2 and following parameters: After the measurement, the background fluorescence value of an empty well on the 96 well plate was subtracted from each probe/lipid/buffer mixture. The fluorescence intensity values were then normalized to the value at lowest pH. The normalized fluorescence intensity vs. pH chart was then plotted in the Microsoft Excel software. The twelve points were connected with a smooth line. The point on the line at which the normalized fluorescence intensity was equal to 0.5 was found. […] The pKa determined using this method is precise to about 0.1 pKa units.

For series [4], the system named is respiratory syncytial virus F protein. Briefly: Immunization studies: anti-RSV-F titers after liposome-delivered vA317 self-replicating RNA. It counts as in vivo. The note with it: BALB/c mice, Course A = days 0 & 21, liposomes with 0.1 μg vA317 replicon (naked control 1 μg). The protocol: BALB/c were immunized with liposomes comprising DSPC, cholesterol, and various lipids of the invention (or, for comparison, the cationic lipid 1,2-dilinoleyloxy-N,N-dimethyl-3-aminopropane or ‘DLinDMA’). The liposomes encapsulated 0.1 μg of “vA317” self-replicating RNA replicon which encodes respiratory syncytial virus F protein (see WO2012/031043). […] Doses were given either on days 0 & 21 or days 0 & 42. Immune responses were assessed 2 weeks after each dose (2wp1, 2wp2), and in some cases also at 4 weeks after the second dose (4wp2). Four series of experiments were performed, each with its own naked control.

Where [5] appears, read: Chol/DSPC/stealth lipid S010, 45/44/9/2.
Where [6] appears, read: Chol/DSPC/stealth lipid S010, molar ratio 45/44/9/2.
The mark [7] stands for this setting: Chol/DSPC/stealth lipid PEG-DMG, 45/44/9/2.
Setting [8] is: Chol/DSPC/stealth lipid PEG-DMG, molar ratio 45/44/9/2.

`CCCCCCCCCCCCCC(=O)OCCCCOc1cc(CN(C)C)cc(OCCCCOC(=O)CCCCCCCCCCCCC)c1` [Example 61] returned a PDI in series [1] (setting [5]) of 0.076. Further, the “Size (nm)” value in series [2] (setting [6]) worked out at 81.79 nm. The molecule further returned a pKa in series [3] of 5.82.

Molecule `CC/C=C\C/C=C\C/C=C\CCCCCCCC(=O)OCCCCOc1cc(CN(C)C)cc(OCCCCOC(=O)CCCCCCC/C=C\C/C=C\C/C=C\CC)c1` [Example 62] gave a PDI in series [1] (setting [5]) of 0.066. Besides, the “Size (nm)” value in series [2] (setting [6]) is 102.5 nm. This molecule also displayed a pKa in series [3] of 5.9.

In the case of `CCCCC/C=C\C/C=C\CCCCCCCC(=O)OCc1cc(COC(=O)CCCCCCC/C=C\C/C=C\CCCCC)cc(COC(=O)OCCCN(CC)CC)c1` [Example 69], in series [1] (setting [5]), the PDI amounted to 0.053. For the same molecule, the “Size (nm)” value in series [2] (setting [6]) was 98.13 nm. Further, in series [3], the pKa came to 5.3. Besides, in series [4] (2 weeks after first dose), the “anti-RSV-F titer 2wp1 pool 1” value was 2853 and the “anti-RSV-F titer 2wp1 pool 2” value was found to be 4481. In series [4] (2 weeks after second dose), the “anti-RSV-F titer 2wp2 pool 1” value is 23851 and the “anti-RSV-F titer 2wp2 pool 2” value was determined as 20793. For the same molecule, in series [4] (4 weeks after second dose), the “anti-RSV-F titer 4wp2 pool 1” value was 19075 and the “anti-RSV-F titer 4wp2 pool 2” value amounted to 21504.

Consider `CCCCC/C=C\C/C=C\CCCCCCCC(=O)OCCCC(=O)OCc1cc(COC(=O)CCCOC(=O)CCCCCCC/C=C\C/C=C\CCCCC)cc(CN(C)C)c1` [Example 82], for which, in series [1] (setting [5]), the PDI was determined as 0.064. In series [2] (setting [6]), the “Size (nm)” value is reported as 119.2 nm. Further, the pKa in series [3] is 6.03.

Consider `CCCCCCCC(=O)OCCCCCCCCCC(=O)OCc1cc(COC(=O)CCCCCCCCCOC(=O)CCCCCCC)cc(CN(C)C)c1` [Example 86], for which the PDI in series [1] (setting [7]) was found to be 0.05; in series [1] (setting [5]), 0.058. The “Size (nm)” value in series [2] (setting [8]) is 128.7 nm; in series [2] (setting [6]) it was 120.3 nm. Moreover, the pKa in series [3] was found to be 5.84.

On to `CCCCCCCC(=O)OCCCCCCCC(=O)OCc1cc(COC(=O)CCCCCCCOC(=O)CCCCCCC)cc(CN(C)C)c1` [Example 87], for which, in series [1] (setting [5]), the PDI was 0.089. In series [2] (setting [6]), the “Size (nm)” value was determined as 159.2 nm. Further, the pKa in series [3] was 6.07.

In series [1] (setting [5]), `CCCCCCCCCC(=O)OCCCCCC(=O)OCc1cc(COC(=O)CCCCCOC(=O)CCCCCCCCC)cc(CN(C)C)c1` [Example 88] returned a PDI of 0.046. In addition, the “Size (nm)” value in series [2] (setting [6]) is reported as 152.4 nm. Also, the pKa in series [3] amounted to 5.99.

`CCCCCCCC(=O)OC[C@@H](CCOc1cc(CN(C)C)cc(OCC[C@@H](COC(=O)CCCCCCC)OC(=O)CCCCCCC)c1)OC(=O)CCCCCCC` [Example 92] yielded a PDI in series [1] (setting [5]) of 0.065. In series [2] (setting [6]), the “Size (nm)” value came to 117.3 nm. In series [3], this molecule returned a pKa of 5.92.

As to `CCCCCCCC(=O)OC[C@H](CCOc1cc(CN(C)C)cc(OCC[C@@H](COC(=O)CCCCCCC)OC(=O)CCCCCCC)c1)OC(=O)CCCCCCC` [Example 93], in series [1] (setting [5]), the PDI came out at 0.071. In addition, the “Size (nm)” value in series [2] (setting [6]) is on record as 121.5 nm. For the same molecule, the pKa in series [3] is 6.

Take `CCCCCCCC(=O)OC[C@@H](CCOc1cc(CN(C)C)cc(OCC[C@H](COC(=O)CCCCCCC)OC(=O)CCCCCCC)c1)OC(=O)CCCCCCC` [Example 94]: the PDI in series [1] (setting [5]) was 0.073. Further, the “Size (nm)” value in series [2] (setting [6]) came to 116.4 nm. The molecule further had a pKa in series [3] of 6.16.

As to `CCCCCCCCCC(=O)OCCCC(=O)OCCCOc1cc(CN(C)C)cc(OCCCOC(=O)CCCOC(=O)CCCCCCCCC)c1` [Example 96], the PDI in series [1] (setting [5]) is 0.14. The “Size (nm)” value in series [2] (setting [6]) is listed as 197.3 nm. Further, the pKa in series [3] turned out to be 5.71.

On to `CCCCCCCC(=O)OCCCCCCCCCCOc1cc(CN(CC)CC)cc(OCCCCCCCCCCOC(=O)CCCCCCC)c1OCCCCCCCCCCOC(=O)CCCCCCC` [Example 100], for which the PDI in series [1] (setting [7]) amounted to 0.07; in series [1] (setting [5]) it was 0.121. For the same molecule, the “Size (nm)” value worked out at 106.4 nm in series [2] (setting [8]) and 105.9 nm in series [2] (setting [6]). In series [3], this molecule yielded a pKa of 6.17.

As for `CCCCCCCCCOC(=O)OCCCCCC(=O)OCc1cc(COC(=O)CCCCCOC(=O)OCCCCCCCCC)cc(CN(C)C)c1` [Example 106], the PDI in series [1] (setting [5]) stood at 0.083. Further, the “Size (nm)” value in series [2] (setting [6]) is on record as 149.3 nm. Also, the pKa in series [3] was 6.04.

Take `CCCCCCCC(=O)OCC(CCCCOc1cc(CN(C)C)cc(OCCCCC(COC(=O)CCCCCCC)COC(=O)CCCCCCC)c1)COC(=O)CCCCCCC` [Example 110]: in series [1] (setting [5]), the PDI amounted to 0.071. The “Size (nm)” value in series [2] (setting [6]) is given as 183.3 nm. In addition, the pKa in series [3] came to 5.66.

Molecule `CCCCCCCC(=O)OCC(COC(=O)CCCCCCC)COc1cc(CN(C)C)cc(OCC(COC(=O)CCCCCCC)COC(=O)CCCCCCC)c1` [Example 111] showed a PDI in series [1] (setting [5]) of 0.048. In addition, the “Size (nm)” value in series [2] (setting [6]) is listed as 161.9 nm. The pKa in series [3] amounted to 6.27.

Regarding `CCCCC/C=C\C/C=C\CCCCCCCC(=O)OCCCCOc1cc(CN2CCCC2)cc(OCCCCOC(=O)CCCCCCC/C=C\C/C=C\CCCCC)c1` [Example 112], the PDI in series [1] (setting [7]) is 0.1. Also, the “Size (nm)” value in series [2] (setting [8]) was 96.1 nm. The same molecule showed a pKa in series [3] of 6.08.
